What all share (format): in vivo, male DBA/1 mice
For experiment [1], the system named is collagen-induced arthritis (CIA) mouse model. Nature of the experiment: Prophylactic collagen-induced arthritis (CIA) study. Here is the method:
The prophylactic effect of Compound A on CIA model in male DBA/1 mice^57 following intraperitoneal (ip) administration, treatment starting 1 hour prior to the last immunization was studied. A study comparing naïve mice (healthy, non-CIA, non-treated), vehicle-treated mice (CIA with DMSO, ip) and CIA mice treated daily with Compound A (7.5 mg/kg, ip) or MTX (0.3 mg/kg, ip) was performed. CIA developed rapidly in mice immunized with CII. In the prophylactic study, a 100% incidence of CIA was observed by day 29 in CII-immunized mice, with maximum AI of 8.55 observed at 41 days post immunization. The AI and incidence of all groups increased in a time-dependent mode from day 25 to day 41.
Separate prophylactic and therapeutic efficacy studies of COMPOUND A were performed. Methotrexate (MTX) (Jiangsu Hengrui Medicine Co, #11041411), Enbrel (Boehringer Ingelheim Pharma KG, # F39487), and vehicle (DMSO 100%, Sigma Aldrich # D2650) were administered to all groups via intraperitoneal injection once daily at a dose volume of 2 mL/kg. Observations for morbidity, mortality, injury, and the availability of food and water were conducted twice daily for all animals. Clinical observations were conducted daily during the study. Body weights were measured and recorded prior to randomization and then once daily during the study. Food consumption was measured and recorded daily. Biopsies for mid-term histology analysis were obtained on Day 13 in the prophylactic study. Necropsy examinations were performed at study termination; plasma samples were collected, organ weights were recorded
(§1) For the prophylactic and the therapeutic studies, CIA was induced in male DBA/1 mice (except naïve mice) by immunization with 0.1 mL emulsion containing an equal volume of bovine type II collagen solution (2 mg/mL) and Freuds Complete Adjuvant at the tail base. The first injection was given on Day 0 and the second injection as booster was given on Day 21 (41-43). COMPOUND A, vehicle (DMSO) and MTX (0.3 mg/kg) were administered daily, Enbrel (25 mg/kg) was administrated twice a week. For the prophylactic study, treatment started one hour before the second collagen injection and continued for 21 days except for the histology groups that were sacrificed at Day 13 ([…]). For the therapeutic study, treatment started at Day 28 and continued for 14 days.
CIA Assessment and Treatment. CIA was assessed in mice by two blinded observers to measure paw swelling with a capacity measurement method on Day 0, Day 20, Day 22, Day 25, Day 27, Day 29, Day 32, Day 34, Day 36, Day 39 and Day 41 after the first injection. The occurrence of arthritis was observed by scoring all paws for severity of erythema and swelling, using a clinical score ranging from 0 (no swelling) to 4 (severe swelling and erythema). The physical condition of the animals was observed daily. Scores and overall evaluation of the histology group arms were performed in the same way as the main groups. However, the values measured were not included in the mean value calculations of the main groups. The YLS-7B Foot Volume Measuring Instrument (Huaibei China Bio Equipment) was used to measure the foot volume of mice. The occurrence of arthritis was observed by scoring all paws for severity of erythema and swelling, using a clinical score ranging from 0 (no swelling) to 4 (severe swelling and erythema), i.e. yielding maximum arthritic index (AI) score 16 (46).
Measurement of the histopathology and clinical observations. At the end of the studies, one hind foot of each mouse was collected for histopathology. The foot including the ankle was fixed in 10% neutral formalin. The ankle joints were decalcified, dehydrated, embedded in paraffin, sectioned and stained with routine hematoxylin-eosin. The sections were studied using light microscopy (10×10 and 20×10 magnifications). Arthritis damage (histological damage score) was evaluated and scored by an investigator blinded for the treatment regimen. […]

Experiment [2] has the same test system. Nature of the experiment: Therapeutic collagen-induced arthritis (CIA) study. The conditions noted are these: Days 36 to 41; Compound A 30 mg/kg ip daily; Enbrel 25 mg/kg twice a week. The source says: The therapeutic effect of Compound A on CIA model in male DBA/1 mice following ip administration, treatment starting 7 days after the last immunization was explored. CIA developed rapidly in mice immunized with CII, with maximum AI of 10.2 observed at 39 days post immunization. The AI and incidence of vehicle- and Compound A treated groups increased in a time-dependent mode from Days 29 to 41. […] Compound A and Enbrel performed equally well; there were no significant difference between these treatments groups.
Separate prophylactic and therapeutic efficacy studies of COMPOUND A were performed. […] Body weights were measured and recorded prior to randomization and then once daily during the study. Food consumption was measured and recorded daily. […] Necropsy examinations were performed at study termination; plasma samples were collected, organ weights were recorded […]
CIA Assessment and Treatment. CIA was assessed in mice by two blinded observers to measure paw swelling with a capacity measurement method on Day 0, Day 20, Day 22, Day 25, Day 27, Day 29, Day 32, Day 34, Day 36, Day 39 and Day 41 after the first injection. […] However, the values measured were not included in the mean value calculations of the main groups. […]

For experiment [3], the system named is PGE2. Put plainly: Plasma PGE2 EIA, prophylactic CIA study. Here is the method: PGE2 is recognized as an important contributor to the joint inflammation in rheumatoid arthritis,^60 and we investigated if plasma PGE2 levels were changed in response to treatment. […] There were no significant differences between the treatment groups (p>0.05).
(§2) PGE2 EIA analysis of blood plasma from the prophylactic and therapeutic CIA studies was performed according to kit protocol. Plasma samples were diluted 1:1000-1:6000 in EIA buffer and allowed to hybridize over-night (18 hrs, 4° C.). The plate was read using a Multiscan plate reader (Ascent Labsystems) (OD550 nm). The corresponding Ascent software for Multiscan, Version 2.4.1 was used to obtain the data. PGE2 levels for all treatments are shown relative to the DMSO-treated vehicle arthritic mice (n=10-11 mice in each category±SD).
as §1

The test system of experiment [4] is PGE2. Nature of the experiment: Plasma PGE2 EIA, therapeutic CIA study. The procedure:
There were no significant differences between the treatment groups (p>0.05).
as §2, §1

Setting [5] is: hind paw, Compound A 7.5 mg/kg, MTX 0.3 mg/kg.

In the case of `CCCCCCCCc1ccc(OCC(=O)c2nc(C(=O)OC)cs2)cc1` [Compound A, Methyl 2-(2-(4-octylphenoxy)acetyl)thiazole-4-carboxylate], the “arthritic index (AI) in comparison to the CIA control group (in words)” value in experiment [1] (Days 32 to 41, Compound A 7.5 mg/kg ip daily, MTX 0.3 mg/kg ip daily) is recorded as “significantly reduced”; in experiment [2], “significantly decreased”. For the same molecule, the “articular cavity and peripheral tissue inflammatory cell infiltration, histopathology vs vehicle (in words)” value in experiment [1] (setting [5]) is reported as “reduced”. Further, in experiment [1] (setting [5]), the “capillary and synovial hyperplasia, histopathology vs vehicle (in words)” value is on record as “reduced”. Further, the “cartilage damage, histopathology vs vehicle (in words)” value in experiment [1] (setting [5]) is on record as “no significant effect”. Further, the “plasma PGE2 level” value came out at 139.8 ± 92 ng/mL in the experiment with PGE2 [3] (prophylactic CIA study, Compound A 7.5 mg/kg, MTX 0.3 mg/kg, vehicle 223.4±107, mean ± SD) and 139 ± 55 ng/mL in the experiment with PGE2 [4] (therapeutic CIA study, Compound A 30 mg/kg, Enbrel 25 mg/kg, vehicle 231.1±110, mean ± SD). For the same molecule, the “reduction of plasma PGE2 levels” value was “about 40%” with PGE2 [3] (prophylactic mode, vs vehicle) and “about 40%” with PGE2 [4] (therapeutic mode, vs vehicle).
